Assay results from US8063028B2, “Heterocyclic antiviral compounds” (Roche Palo Alto LLC, priority 2007, dated 2011).
Structures can show the parent of a compound that is named as a salt.

Target: HIV-1 RT (Human immunodeficiency virus type 1 group M subtype B, UniProt P04585)
Assay: HIV reverse transcriptase assay, inhibitor IC50 determination
Format: biochemical
Details: purified recombinant enzyme, poly(rA)/oligo(dT)16 template-primer, 37° C. 30 min
Procedure: Reactions were initiated by adding 4 nM HIV-1 RT and after incubation at 37° C. for 30 min, they were stopped by the addition of 50 μl ice cold 20% TCA and allowed to precipitate at 4° C. for 30 min. The precipitates were collected by applying vacuum to the plate and sequentially washing with 3×200 μl of 10% TCA and 2×200 μl 70% ethanol. Finally, the plates were dried and radioactivity counted in a Packard TopCounter after the addition of 25 μl scintillation fluid per well. IC50's were calculated by plotting % inhibition versus log10 inhibitor concentrations. Representative IC50 data is depicted in TABLE 2.

Structure (SMILES)	IC50 [nM]
N#Cc1cc(Cl)cc(Oc2c(Cl)ccc(Cc3nn(COC(=O)CCC(=O)O)c4nnccc34)c2F)c1 [Compound I-5, Succinic acid mono-{3-[4-chloro-3-(3-chloro-5-cyano-phenoxy)-2-fluoro-benzyl]-pyrazolo[3,4-c]pyridazin-1-ylmethyl}ester]	7.4
N#Cc1cc(Cl)cc(Oc2c(Br)ccc(Cc3nn(COC(=O)CCC(=O)O)c4nnccc34)c2F)c1 [Compound I-3, Succinic acid mono-{3-[4-bromo-3-(3-chloro-5-cyano-phenoxy)-2-fluoro-benzyl]-pyrazolo[3,4-c]pyridazin-1-ylmethyl}ester]	4.9

Test system: not given
Assay: not given
Details: not given

melting point [°C]	Structure (SMILES)
164 to 165	COC(=O)n1nc(Cc2ccc(Br)c(Oc3cc(Cl)cc(C#N)c3)c2F)c2ccnnc21 [Compound I-6, 3-[4-Bromo-3-(3-chloro-5-cyano-phenoxy)-2-fluoro-benzyl]-pyrazolo[3,4-c]pyridazine-1-carboxylic acid methyl ester]
139 to 140	CCOC(=O)n1nc(Cc2ccc(Br)c(Oc3cc(Cl)cc(C#N)c3)c2F)c2ccnnc21 [Compound I-11, 3-[4-Bromo-3-(3-chloro-5-cyano-phenoxy)-2-fluoro-benzyl]-pyrazolo[3,4-c]pyridazine-1-carboxylic acid ethyl ester]
157.7 to 159.3	CC(C)C(=O)n1nc(Cc2ccc(Br)c(Oc3cc(Cl)cc(C#N)c3)c2F)c2ccnnc21 [Compound I-21, 3-[6-Bromo-2-fluoro-3-(1-isobutyryl-1H-pyrazolo[3,4-c]pyridazin-3-ylmethyl)-phenoxy]-5-chloro-benzonitrile]
166.1 to 166.9	CC(C)OC(=O)n1nc(Cc2ccc(Br)c(Oc3cc(Cl)cc(C#N)c3)c2F)c2ccnnc21 [Compound I-20, 3-[4-Bromo-3-(3-chloro-5-cyano-phenoxy)-2-fluoro-benzyl]-pyrazolo[3,4-c]pyridazine-1-carboxylic acid isopropyl ester]
119 to 122	CC(CN(C)C)OC(=O)n1nc(Cc2ccc(Br)c(Oc3cc(Cl)cc(C#N)c3)c2F)c2ccnnc21 (centres unmarked) (as salt: hydrochloride) [Compound I-13, 3-[4-Bromo-3-(3-chloro-5-cyano-phenoxy)-2-fluoro-benzyl]-pyrazolo[3,4-c]pyridazine-1-carboxylic acid 2-dimethylamino-1-methyl-ethyl ester]
166.1 to 169.9	N#Cc1cc(C#N)cc(Oc2c(Cl)ccc(Cc3nn(COC(=O)CCC(=O)O)c4nnccc34)c2F)c1 [Compound I-12, Succinic acid mono-{3-[4-chloro-3-(3,5-dicyano-phenoxy)-2-fluoro-benzyl]-pyrazolo[3,4-c]pyridazin-1-ylmethyl}ester]
155 to 156	CC(C)[C@H](N)C(=O)OCn1nc(Cc2ccc(Br)c(Oc3cc(Cl)cc(C#N)c3)c2F)c2ccnnc21.Cl [Compound I-9, (S)-2-Amino-3-methyl-butyric acid 3-[4-bromo-3-(3-chloro-5-cyano-phenoxy)-2-fluoro-benzyl]-pyrazolo[3,4-c]pyridazin-1-ylmethyl ester]

Second part, the compound before the results:

Structure (SMILES)	melting point [°C]
N#Cc1cc(Cl)cc(Oc2c(Cl)ccc(Cc3nn(COC(=O)CCC(=O)O)c4nnccc34)c2F)c1 [Compound I-5, Succinic acid mono-{3-[4-chloro-3-(3-chloro-5-cyano-phenoxy)-2-fluoro-benzyl]-pyrazolo[3,4-c]pyridazin-1-ylmethyl}ester]	173 to 174.8
N#Cc1cc(Cl)cc(Oc2c(Cl)ccc(Cc3nn(COC(=O)CCCC(=O)O)c4nnccc34)c2F)c1 [Compound I-14, Pentanedioic acid mono-{3-[4-chloro-3-(3-chloro-5-cyano-phenoxy)-2-fluoro-benzyl]-pyrazolo[3,4-c]pyridazin-1-ylmethyl}ester]	176 to 178
N#Cc1cc(C#N)cc(Oc2c(Br)ccc(Cc3nn(COC(=O)CCC(=O)O)c4nnccc34)c2F)c1 [Compound I-4, Succinic acid mono-{3-[4-bromo-3-(3,5-dicyano-phenoxy)-2-fluoro-benzyl]-pyrazolo[3,4-c]pyridazin-1-ylmethyl}ester]	175.2 to 176.5
N#Cc1cc(Cl)cc(Oc2c(Br)ccc(Cc3nn(COC(=O)CCCCC(=O)O)c4nnccc34)c2F)c1 [Compound I-15, Hexanedioic acid mono-{3-[4-bromo-3-(3-chloro-5-cyano-phenoxy)-2-fluoro-benzyl]-pyrazolo[3,4-c]pyridazin-1-ylmethyl}ester]	159 to 160
N#Cc1cc(Cl)cc(Oc2c(Br)ccc(Cc3nn(COC(=O)COCC(=O)O)c4nnccc34)c2F)c1 [Compound I-10, {3-[4-Bromo-3-(3-chloro-5-cyano-phenoxy)-2-fluoro-benzyl]-pyrazolo[3,4-c]pyridazin-1-ylmethoxycarbonylmethoxy}-acetic acid]	146 to 147
N#Cc1cc(Cl)cc(Oc2c(Br)ccc(Cc3nn(COC(=O)CCC(=O)O)c4nnccc34)c2F)c1 (as salt: sodium) [Compound I-3, Succinic acid mono-{3-[4-bromo-3-(3-chloro-5-cyano-phenoxy)-2-fluoro-benzyl]-pyrazolo[3,4-c]pyridazin-1-ylmethyl}ester]	172.6 to 173.9
N#Cc1cc(Cl)cc(Oc2c(Br)ccc(Cc3nn(COC(=O)CCCC(=O)O)c4nnccc34)c2F)c1 [Compound I-7, Pentanedioic acid mono-{3-[4-bromo-3-(3-chloro-5-cyano-phenoxy)-2-fluoro-benzyl]-pyrazolo[3,4-c]pyridazin-1-ylmethyl}ester]	149.8 to 150.7
N#Cc1cc(Cl)cc(Oc2c(Br)ccc(Cc3nn(COC(=O)CCC(=O)O)c4ncccc34)c2F)c1 [Compound I-1, Succinic acid mono-{3-[4-bromo-3-(3-chloro-5-cyano-phenoxy)-2-fluoro-benzyl]-pyrazolo[3,4-b]pyridin-1-ylmethyl}ester]	183 to 184
N#Cc1cc(Cl)cc(Oc2c(Br)ccc(Cc3nn(C(=O)c4cccnc4)c4nnccc34)c2F)c1 [Compound I-17, 3-{6-Bromo-2-fluoro-3-[1-(pyridine-3-carbonyl)-1H-pyrazolo[3,4-c]pyridazin-3-ylmethyl]-phenoxy}-5-chloro-benzonitrile]	187.7 to 188.5
CC(=O)OCn1nc(Cc2ccc(Br)c(Oc3cc(Cl)cc(C#N)c3)c2F)c2ccnnc21 [Compound I-8, Acetic acid 3-[4-bromo-3-(3-chloro-5-cyano-phenoxy)-2-fluoro-benzyl]-pyrazolo[3,4-c]pyridazin-1-ylmethyl ester]	71.1 to 73
CC(=O)n1nc(Cc2ccc(Br)c(Oc3cc(Cl)cc(C#N)c3)c2F)c2ccnnc21 [Compound I-16, 3-[3-(1-Acetyl-1H-pyrazolo[3,4-c]pyridazin-3-ylmethyl)-6-bromo-2-fluoro-phenoxy]-5-chloro-benzonitrile]	195.5 to 196.9
